In PubChem BioAssay (NCI):
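Five compound concentrations were applied to cells in 96-well plates for 48 hours; endpoints were derived by simple linear interpolation of the resulting dose-response curve. Definition used: TGI = concentration required for complete inhibition of growth.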 Activity calls are given as the source filed them. Rule as the data show it: active = GI50 below about 0.43 µM; inactive = the rest.

Columns and labels:
Assay in all cases: NCI-60 cell line screen, 48 h
[1] = test system: HT29 colon
[2] = test system: CAKI-1 renal
[3] = test system: NCI-H226 lung
[4] = test system: SF-268 CNS
[5] = test system: BT-549 breast
[6] = test system: OVCAR-8 ovarian
[7] = test system: MDA-N
[8] = test system: ACHN renal
[9] = test system: SF-539 CNS
[10] = test system: MALME-3M melanoma
[11] = test system: SF-295 CNS
[12] = test system: SK-MEL-5 melanoma
[13] = test system: COLO 205 colon
[14] = test system: NCI/ADR-RES ovarian
[15] = test system: SK-MEL-2 melanoma
[16] = test system: NCI-H23 lung
[17] = test system: NCI-H522 lung
[18] = test system: HOP-62 NSCLC
[19] = test system: SK-OV-3 ovarian
[20] = test system: MOLT-4 leukemia
[21] = test system: LOX IMVI melanoma
[22] = test system: KM12 colon
[23] = test system: SR leukemia
[24] = test system: SW-620 colon
[25] = test system: TK-10 renal
[26] = test system: HS 578T breast
[27] = test system: RPMI-8226 leukemia
[28] = test system: A549 NSCLC
[29] = test system: A498 renal
[30] = test system: U251 CNS
[31] = test system: M14 melanoma
[32] = test system: T-47D breast
[33] = test system: HOP-92 NSCLC
[34] = test system: SN12C renal
[35] = test system: SNB-19 CNS
[36] = test system: 786-0 renal
[37] = test system: NCI-H460 lung
[38] = test system: MDA-MB-231 breast
[39] = test system: MDA-MB-435
[40] = test system: HCT-116 colon
[41] = test system: UACC-62 melanoma
[42] = test system: OVCAR-3 ovarian
[43] = test system: HCC-2998 colon
[44] = test system: HCT-15 colon
[45] = test system: K-562 leukemia
[46] = test system: EKVX NSCLC
[47] = test system: SNB-75 CNS
[48] = test system: CCRF-CEM leukemia
[49] = test system: DU-145 prostate
[50] = test system: MCF7 breast
[51] = test system: UO-31 renal
[52] = test system: RXF 393 renal
[53] = test system: HL-60(TB) leukemia
[54] = test system: SK-MEL-28 melanoma
[55] = test system: OVCAR-4 ovarian
[56] = test system: PC-3 prostate
[57] = test system: UACC-257 melanoma
[58] = test system: OVCAR-5 ovarian
[59] = test system: IGROV1 ovarian

O=C(c1ccc(Cl)c(Cl)c1)N(Cc1cccnc1)C(=S)N(Cc1cccnc1)C(=O)c1ccc(Cl)c(Cl)c1
TGI [1]: 65.1 µM
TGI [2]: > 100000 nM
TGI [3]: > 100000 nM
TGI [4]: > 100000 nM
TGI [5]: 65.8 µM
TGI [6]: 84.5 µM
TGI [7]: > 100000 nM
TGI [8]: 36.2 µM
TGI [9]: 45.5 µM
TGI [10]: > 100000 nM
TGI [11]: 67.1 µM
TGI [12]: 75.7 µM
TGI [13]: 32.2 µM
TGI [14]: > 100 µM
TGI [15]: 95.7 µM
TGI [16]: > 100000 nM
TGI [17]: 41.9 µM
TGI [18]: 83.6 µM
TGI [19]: > 100000 nM
TGI [20]: > 100 µM
TGI [21]: > 100000 nM
TGI [22]: > 100 µM
TGI [23]: > 100000 nM
TGI [24]: > 100000 nM
TGI [25]: 79.8 µM
TGI [26]: > 100000 nM
TGI [27]: > 100000 nM
TGI [28]: > 100 µM
TGI [29]: 79.4 µM
TGI [30]: > 100000 nM
TGI [31]: 52.9 µM
TGI [32]: > 100 µM
TGI [33]: > 100000 nM
TGI [34]: 52.2 µM
TGI [35]: 88.4 µM
TGI [36]: 54.2 µM
TGI [37]: > 100000 nM
TGI [38]: 99.1 µM
TGI [39]: > 100000 nM
TGI [40]: 63.4 µM
TGI [41]: > 100000 nM
TGI [42]: 78.3 µM
TGI [43]: 39.8 µM
TGI [44]: 64.2 µM
TGI [45]: > 100000 nM
TGI [46]: > 100 µM
TGI [47]: > 100000 nM
TGI [48]: > 100000 nM
TGI [49]: > 100000 nM
TGI [50]: > 100000 nM
TGI [51]: 33.2 µM
TGI [52]: 79.6 µM
TGI [53]: > 100 µM
TGI [54]: > 100 µM
TGI [55]: > 100 µM
TGI [56]: 83.4 µM
TGI [57]: 91.5 µM
TGI [58]: 71.7 µM

O=c1cc(-c2ccc(O)c(O)c2-c2c(O)cc3oc(-c4ccc(O)c(O)c4)cc(=O)c3c2O)oc2cc(O)cc(O)c12
outcome [1]: inactive
outcome [2]: inactive
outcome [3]: inactive
outcome [4]: inactive
outcome [5]: inactive
outcome [6]: inactive
outcome [7]: inactive
outcome [8]: inactive
outcome [9]: inactive
outcome [10]: inactive
outcome [11]: inactive
outcome [12]: inactive
outcome [13]: inactive
outcome [14]: inactive
outcome [15]: inactive
outcome [16]: inactive
outcome [17]: inactive
outcome [18]: inactive
outcome [19]: inactive
outcome [21]: inactive
outcome [22]: inactive
outcome [23]: inactive
outcome [24]: inactive
outcome [25]: inactive
outcome [26]: inactive
outcome [27]: inactive
outcome [28]: inactive
outcome [29]: inactive
outcome [30]: inactive
outcome [31]: inactive
outcome [32]: inactive
outcome [33]: inactive
outcome [34]: inactive
outcome [35]: inactive
outcome [36]: inactive
outcome [38]: inactive
outcome [39]: inactive
outcome [40]: inactive
outcome [41]: inactive
outcome [42]: inactive
outcome [43]: inactive
outcome [59]: inactive
outcome [44]: inactive
outcome [45]: inactive
outcome [46]: inactive
outcome [47]: inactive
outcome [48]: inactive
outcome [49]: inactive
outcome [50]: inactive
outcome [51]: inactive
outcome [52]: inactive
outcome [53]: inactive
outcome [54]: inactive
outcome [55]: inactive
outcome [56]: inactive
outcome [57]: inactive
outcome [58]: inactive

NC(=O)NC(=O)c1cccc(NC(=O)CI)c1
TGI [1]: 0.0607 µM
TGI [2]: 662 nM
TGI [3]: 201 nM
TGI [4]: 71.7 nM
TGI [5]: 2.44 µM
TGI [6]: 0.188 µM
TGI [7]: 25.3 nM
TGI [8]: 1.58 µM
TGI [9]: 0.0701 µM
TGI [10]: 899 nM
TGI [11]: 2.68 µM
TGI [12]: 0.0382 µM
TGI [13]: < 0.01 µM
TGI [14]: 5.32 µM
TGI [15]: 0.837 µM
TGI [16]: 2040 nM
TGI [17]: < 0.01 µM
TGI [18]: 1.16 µM
TGI [19]: 1060 nM
TGI [21]: 395 nM
TGI [22]: 18.5 µM
TGI [23]: 416 nM
TGI [24]: 2030 nM
TGI [26]: 146 nM
TGI [27]: 312 nM
TGI [28]: 12.4 µM
TGI [29]: 0.805 µM
TGI [30]: 136 nM
TGI [31]: 0.408 µM
TGI [32]: 4.3 µM
TGI [33]: 1580 nM
TGI [34]: 0.326 µM
TGI [35]: 14.7 µM
TGI [37]: 286 nM
TGI [38]: 0.866 µM
TGI [39]: 202 nM
TGI [40]: 0.106 µM
TGI [41]: 692 nM
TGI [42]: < 0.01 µM
TGI [43]: 0.609 µM
TGI [59]: 796 nM
TGI [44]: 2.06 µM
TGI [45]: 1450 nM
TGI [46]: 10.4 µM
TGI [47]: 1750 nM
TGI [48]: 145 nM
TGI [49]: 103 nM
TGI [50]: 1560 nM
TGI [51]: 1.44 µM
TGI [52]: 2.13 µM
TGI [53]: < 0.01 µM
TGI [54]: 7.49 µM
TGI [55]: 5.08 µM
TGI [56]: 1.35 µM
TGI [57]: 0.438 µM
TGI [58]: 2.12 µM
